molecular target: T1, Human KLK1 (Homo sapiens, UniProt P06870); test: Determination of the IC50 for KLK1 (fluorogenic substrate H-DVal-Leu-Arg-AFC); format: biochemical; conditions: 37° C.
T1 construct: purchased Callbiochem (Calbiochem)
Outline: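 Test compound at various concentrations was incubated with human KLK1 and the fluorogenic substrate H-DVal-Leu-Arg-AFC at 37° C. Absorbance change at 410 nm gave the initial reaction rate, from which IC50 was obtained.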

T1 sequence (P06870 25-262): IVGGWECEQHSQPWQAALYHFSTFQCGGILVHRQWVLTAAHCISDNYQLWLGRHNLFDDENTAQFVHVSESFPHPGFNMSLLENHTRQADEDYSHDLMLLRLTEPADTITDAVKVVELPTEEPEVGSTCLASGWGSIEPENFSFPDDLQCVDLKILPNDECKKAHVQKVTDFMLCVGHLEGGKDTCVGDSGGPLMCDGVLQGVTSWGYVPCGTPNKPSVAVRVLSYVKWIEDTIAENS

Row | SMILES | IC50 [nM]
1 | CC(C)N1CCC[C@@H]1C(=O)N[C@@H](Cc1c[nH]c2ccccc12)C(=O)NCc1ccc(N)nc1 [Example 130, (R)-1-Isopropyl-pyrrolidine-2-carboxylic acid [(S)-1-[(6-amino-pyridin-3-ylmethyl)-carbamoyl]-2-(1H-indol-3-yl)-ethyl]-amide] | 5
2 | CCN1CCC[C@@H]1C(=O)N[C@@H](Cc1ccc(F)cc1)C(=O)NCc1ccc(N)nc1 [Example 136, (R)-1-Ethyl-pyrrolidine-2-carboxylic acid [(S)-1-[(6-amino-pyridin-3-ylmethyl)-carbamoyl]-2-(4-fluoro-phenyl)-ethyl]-amide] | 8.6
3 | CCN1CCC[C@@H]1C(=O)N[C@@H](Cc1cccc(C)c1)C(=O)NCc1ccc(N)nc1 [Example 137, (R)-1-Ethyl-pyrrolidine-2-carboxylic acid {(S)-1-[(6-amino-pyridin-3-ylmethyl)-carbamoyl]-2-m-tolyl-ethyl}-amide] | 288
4 | CCN1CCC[C@@H]1C(=O)N[C@@H](Cc1cccc(Cl)c1)C(=O)NCc1ccc(N)nc1 [Example 138, (R)-1-Ethyl-pyrrolidine-2-carboxylic acid [(S)-1-[(6-amino-pyridin-3-ylmethyl)-carbamoyl]-2-(3-chloro-phenyl)-ethyl]-amide] | 39.8
5 | CCCN1CCC[C@@H]1C(=O)N[C@@H](Cc1ccc(F)cc1)C(=O)NCc1ccc(N)nc1 [Example 139, (R)-1-Propyl-pyrrolidine-2-carboxylic acid [(S)-1-[(6-amino-pyridin-3-ylmethyl)-carbamoyl]-2-(4-fluoro-phenyl)-ethyl]-amide] | 3.7
6 | Nc1ccc(CNC(=O)[C@H](Cc2ccc(F)c(F)c2)NC(=O)[C@H]2CCCN2Cc2ccccc2)cn1 [Example 140, (R)-1-Benzyl-pyrrolidine-2-carboxylic acid [(S)-1-[(6-amino-pyridin-3-ylmethyl)-carbamoyl]-2-(3,4-difluoro-phenyl)-ethyl]-amide] | 4.3
7 | Nc1ccc(CNC(=O)[C@H](Cc2ccc(Cl)c(Cl)c2)NC(=O)[C@H]2CCCN2Cc2ccccc2)cn1 [Example 141, (R)-1-Benzyl-pyrrolidine-2-carboxylic acid [(S)-1-[(6-amino-pyridin-3-ylmethyl)-carbamoyl]-2-(3,4-dichloro-phenyl)-ethyl]-amide] | 13.7
8 | Nc1ccc(CNC(=O)[C@H](Cc2ccc(F)c(F)c2)NC(=O)[C@H]2CCCN2Cc2ccc(Cl)cc2)cn1 [Example 142, (R)-1-(4-Chloro-benzyl)-pyrrolidine-2-carboxylic acid [(S)-1-[(6-amino-pyridin-3-ylmethyl)-carbamoyl]-2-(3,4-difluoro-phenyl)-ethyl]-amide] | 15
9 | Nc1ccc(CNC(=O)[C@H](Cc2ccc(F)c(F)c2)NC(=O)[C@H]2CCCN2Cc2cccc(Cl)c2)cn1 [Example 143, (R)-1-(3-Chloro-benzyl)-pyrrolidine-2-carboxylic acid [(S)-1-[(6-amino-pyridin-3-ylmethyl)-carbamoyl]-2-(3,4-difluoro-phenyl)-ethyl]-amide] | 21
10 | CC(C)N1CCCC[C@@H]1C(=O)N[C@@H](Cc1ccc(F)cc1)C(=O)NCc1ccc(N)nc1 [Example 147, (R)-1-Isopropyl-piperidine-2-carboxylic acid [(S)-1-[(6-amino-pyridin-3-ylmethyl)-carbamoyl]-2-(4-fluoro-phenyl)-ethyl]-amide] | 49.6
11 | CN1Cc2ccccc2C[C@@H]1C(=O)N[C@@H](Cc1ccc(F)c(F)c1)C(=O)NCc1ccc(N)nc1 [Example 149, (R)-2-Methyl-1,2,3,4-tetrahydro-isoquinoline-3-carboxylic acid [(S)-1-[(6-amino-pyridin-3-ylmethyl)-carbamoyl]-2-(3,4-difluoro-phenyl)-ethyl]-amide] | 36.8
12 | CN(CC(=O)N[C@@H](Cc1ccc(Cl)c(Cl)c1)C(=O)NCc1ccc(N)nc1)Cc1ccccc1 [Example 152, (S)—N-(6-Amino-pyridin-3-ylmethyl)-2-[2-(benzyl-methyl-amino)-acetylamino]-3-(3,4-dichloro-phenyl)-propionamide] | 5.7
13 | CCC(C)[C@H](C(=O)N[C@@H](Cc1ccc(Cl)c(Cl)c1)C(=O)NCc1ccc(N)nc1)N(C)C(C)C (stereo partly drawn) [Example 155, (R)-2-(Isopropyl-methyl-amino)-3-methyl-pentanoic acid [(S)-1-[(6-amino-pyridin-3-ylmethyl)-carbamoyl]-2-(3,4-dichloro-phenyl)-ethyl]-amide] | 63.3

Second part, the compound after the results:

Row | IC50 [nM] | SMILES
14 | 6.4 | CCCN1CCC[C@@H]1C(=O)N[C@@H](Cc1ccc(F)c(F)c1)C(=O)NCc1ccc(N)nc1 [Example 132, (R)-1-Propyl-pyrrolidine-2-carboxylic acid [(S)-1-[(6-amino-pyridin-3-ylmethyl)-carbamoyl]-2-(3,4-difluoro-phenyl)-ethyl]-amide]
15 | 16.5 | CC(C)CN1CCC[C@@H]1C(=O)N[C@@H](Cc1ccc(F)c(F)c1)C(=O)NCc1ccc(N)nc1 [Example 133, (R)-1-Isobutyl-pyrrolidine-2-carboxylic acid [(S)-1-[(6-amino-pyridin-3-ylmethyl)-carbamoyl]-2-(3,4-difluoro-phenyl)-ethyl]-amide]
16 | 13.5 | COC(=O)CN1CCC[C@@H]1C(=O)N[C@@H](Cc1ccc(F)c(F)c1)C(=O)NCc1ccc(N)nc1 [Example 134, {(R)-2-[(S)-1-[(6-Amino-pyridin-3-ylmethyl)-carbamoyl]-2-(3,4-difluoro-phenyl)-ethylcarbamoyl]-pyrrolidin-1-yl}-acetic acid methyl ester]
17 | 17.3 | Nc1ccc(CNC(=O)[C@H](Cc2ccc(F)c(F)c2)NC(=O)[C@H]2CCCN2CC(=O)O)cn1 [Example 135, {(R)-2-[(S)-1-[(6-Amino-pyridin-3-ylmethyl)-carbamoyl]-2-(3,4-difluoro-phenyl)-ethylcarbamoyl]-pyrrolidin-1-yl}-acetic acid]
18 | 20.9 | CN1CCCC[C@@H]1C(=O)N[C@@H](Cc1ccc(F)c(F)c1)C(=O)NCc1ccc(N)nc1 [Example 144, (R)-1-Methyl-piperidine-2-carboxylic acid [(S)-1-[(6-amino-pyridin-3-ylmethyl)-carbamoyl]-2-(3,4-difluoro-phenyl)-ethyl]-amide]
19 | 102 | CC(C)N1CCCC[C@@H]1C(=O)N[C@@H](Cc1ccc(F)c(F)c1)C(=O)NCc1ccc(N)nc1 [Example 146, (R)-1-Isopropyl-piperidine-2-carboxylic acid [(S)-1-[(6-amino-pyridin-3-ylmethyl)-carbamoyl]-2-(3,4-difluoro-phenyl)-ethyl]-amide]
20 | 55.7 | CN1C[C@H](O)C[C@@H]1C(=O)N[C@@H](Cc1ccc(F)c(F)c1)C(=O)NCc1ccc(N)nc1 [Example 148, (2R,4R)-4-Hydroxy-1-methyl-pyrrolidine-2-carboxylic acid [(S)-1-[(6-amino-pyridin-3-ylmethyl)-carbamoyl]-2-(3,4-difluoro-phenyl)-ethyl]-amide]
21 | 12 | CC(C)N(C)CC(=O)N[C@@H](Cc1ccc(Cl)c(Cl)c1)C(=O)NCc1ccc(N)nc1 [Example 150, (S)—N-(6-Amino-pyridin-3-ylmethyl)-3-(3,4-dichloro-phenyl)-2-[2-(isopropyl-methyl-amino)-acetylamino]-propionamide]
22 | 17.7 | CC(C)N(C)[C@H](C)C(=O)N[C@@H](Cc1ccc(Cl)c(Cl)c1)C(=O)NCc1ccc(N)nc1 [Example 151, (R)—N-[(S)-1-[(6-Amino-pyridin-3-ylmethyl)-carbamoyl]-2-(3,4-dichloro-phenyl)-ethyl]-2-(isopropyl-methyl-amino)-propionamide]
23 | 69.9 | CN(C)CC(=O)N[C@@H](Cc1ccc(Cl)c(Cl)c1)C(=O)NCc1ccc(N)nc1 [Example 153, (S)—N-(6-Amino-pyridin-3-ylmethyl)-3-(3,4-dichloro-phenyl)-2-(2-dimethylamino-acetylamino)-propionamide]
24 | 216 | CC(C)CN(C)CC(=O)N[C@@H](Cc1ccc(Cl)c(Cl)c1)C(=O)NCc1ccc(N)nc1 [Example 154, (S)—N-(6-Amino-pyridin-3-ylmethyl)-3-(3,4-dichloro-phenyl)-2-[2-(isobutyl-methyl-amino)-acetylamino]-propionamide]
25 | 80.6 | CC(C)N(C)CC(=O)N[C@@H](Cc1ccc(F)c(F)c1)C(=O)NCc1ccc(N)nc1 [Example 156, (S)—N-(6-Amino-pyridin-3-ylmethyl)-3-(3,4-difluoro-phenyl)-2-[2-(isopropyl-methyl-amino)-acetylamino]-propionamide]
26 | 114 | CCCN(CCC)CC(=O)N[C@@H](Cc1ccc(F)c(F)c1)C(=O)NCc1ccc(N)nc1 [Example 158, (S)—N-(6-Amino-pyridin-3-ylmethyl)-3-(3,4-difluoro-phenyl)-2-(2-dipropylamino-acetylamino)-propionamide]
27 | 165 | CC(C)CN(CC(=O)N[C@@H](Cc1ccc(F)c(F)c1)C(=O)NCc1ccc(N)nc1)CC(C)C [Example 159, (S)—N-(6-Amino-pyridin-3-ylmethyl)-3-(3,4-difluoro-phenyl)-2-(2-diisobutylamino-acetylamino)-propionamide]
28 | 185 | Nc1ccc(CNC(=O)[C@H](Cc2ccc(F)c(F)c2)NC(=O)CNCCc2ccccc2)cn1 [Example 160, (S)—N-(6-Amino-pyridin-3-ylmethyl)-3-(3,4-difluoro-phenyl)-2-(2-phenethylamino-acetylamino)-propionamide]
29 | 93.5 | CN(CCc1ccccc1)CC(=O)N[C@@H](Cc1ccc(F)c(F)c1)C(=O)NCc1ccc(N)nc1 [Example 161, (S)—N-(6-Amino-pyridin-3-ylmethyl)-3-(3,4-difluoro-phenyl)-2-[2-(methyl-phenethyl-amino)-acetylamino]-propionamide]
30 | 38.1 | CN(C/C=C/c1ccccc1)CC(=O)N[C@@H](Cc1ccc(F)c(F)c1)C(=O)NCc1ccc(N)nc1 [Example 162, (S)—N-(6-Amino-pyridin-3-ylmethyl)-3-(3,4-difluoro-phenyl)-2-{2-[methyl-((E)-3-phenyl-allyl)-amino]-acetylamino}-propionamide]

From patent publication US20100076015A1, “Aminopyridine Derivatives” (VANTIA LIMITED, priority 2008, published 2010)
